Measured values published in patent publication US20240091200A1 (Lilac Therapeutics, Inc., priority 2019, published 2024).
Values joined by “and” are separate entries in the source; they are usually repeats but may differ in a detail not shown here. Equal values may be shown once. Read-outs that look alike come from different tables or passages of the source.

Tests used:
[1] = Plasma pharmacokinetics after an oral dose of Example 2 in SD rats; assay type: in vivo, Sprague Dawley rats; conditions: for bioavailability: oral
Method: An oral dose of Example 2 was formulated in a sterile solution of 50% water, 37.5% PEG 300, and 12.5% DMSO at 1.0 mg/mL. The dosing group consisted of three fasted male Sprague Dawley rats. At dosing, the animals weighed between 0.26 and 0.27 kg. For the oral dosing group, the formulated dose was administered via oral gavage at 5.0 mL/kg for a dose of 5.0 mg/kg. Non-compartmental pharmacokinetic analysis was performed on the plasma concentration-time data.

[2] = Plasma pharmacokinetics of Example 68 after IV infusion or PO dose in SD rats; assay type: in vivo
[3] = Example 68 in plasma, PO dose of Example 2 5 mg/kg, individual rats
[4] = male, Sprague Dawley, rat, plasma, po, 5 mg/kg, Example 68 in plasma, PO dose of Example 2 5 mg/kg, individual rats
[5] = male, Sprague Dawley, rat, plasma, po, 5 mg/kg, Example 68 in plasma, PO dose of Example 2 5 mg/kg, mean n=3
[6] = 30-minute IV infusion 1 mg/kg, individual rats
[7] = 30-minute IV infusion 1 mg/kg, mean n=3
[8] = PO dose 5 mg/kg, individual rats
[9] = SD, rat, plasma, po, 5 mg/kg, PO dose 5 mg/kg, mean n=3
[10] = Sprague-Dawley (SD), rat, plasma, iv, 1 mg/kg, 30-minute IV infusion 1 mg/kg, individual rats
[11] = Sprague-Dawley (SD), rat, plasma, iv, 1 mg/kg, 30-minute IV infusion 1 mg/kg, mean n=3

For `NC(=O)c1ccc(-c2ccc(-c3nn[nH]c3C(=O)O)cc2)cc1` [Example 68, 4-(4carbamoyl-[1,1biphenyl]-4-yl)-1H-1,2,3-triazole-5-carboxylic acid], the “F (bioavailability)” value ([1]; Example 68 after PO Example 2 5 mg/kg, based on IV exposure of Example 68 at 1.0 mg/kg, individual rats) was 20.2% and 17.4%, the AUC0-24 h [1, 3] was 3.36 µM·h and 2.93 µM·h and the AUCinf [1, 3] was 3.45 µM·h and 2.98 µM·h. The Cmax [1, 3] was 2220 nM and 2450 nM, the Tmax [1, 3] was 15 min and the AUCinf ([1]; Example 68 in plasma, PO dose of Example 2 5 mg/kg, mean n=3) was 3.25 µM·h. The bioavailability ([1]; male, Sprague Dawley, rat, plasma, 5 mg/kg, Example 68 after PO Example 2 5 mg/kg, based on IV exposure of Example 68 at 1.0 mg/kg, individual rats, read-out: F (bioavailability)) was 19.4%, the bioavailability ([1]; male, Sprague Dawley, rat, plasma, 5 mg/kg, Example 68 after PO Example 2 5 mg/kg, based on IV exposure of Example 68 at 1.0 mg/kg, mean n=3, read-out: F (bioavailability)) was 19 ± 1.4% and the AUC(0-inf) [1, 4] was 3.32 µM·h. It also gave a Cmax [1, 4] of 2120 nM, an AUC(0-t) ([1]; male, Sprague Dawley, rat, plasma, po, 5 mg/kg, Example 68 in plasma, PO dose of Example 2 5 mg/kg, individual rats, read-out: AUC0-24 h) of 3.15 µM·h and a Tmax ([1]; male, Sprague Dawley, rat, plasma, po, 5 mg/kg, Example 68 in plasma, PO dose of Example 2 5 mg/kg, individual rats, read-out: Tmax) of 30 min. The AUC(0-inf) [1, 5] was 3.25 ± 0.242 µM·h, the Cmax [1, 5] was 2270 ± 171 nM and the AUC(0-t) ([1]; male, Sprague Dawley, rat, plasma, po, 5 mg/kg, Example 68 in plasma, PO dose of Example 2 5 mg/kg, mean n=3, read-out: AUC0-24 h) was 3.14 µM·h. The Tmax ([1]; male, Sprague Dawley, rat, plasma, po, 5 mg/kg, Example 68 in plasma, PO dose of Example 2 5 mg/kg, mean n=3, read-out: Tmax) was 25.2 min, the AUCinf [2, 6] was 3.11 µM·h and 3.46 µM·h and the AUClast [2, 6] was 3.09 µM·h and 3.45 µM·h. The “CL (apparent systemic clearance)” value [2, 6] was 17.3 mL/min/kg and 15.5 mL/min/kg, the Cmax [2, 6] was 5100 nM and 5350 nM and the “MRT (mean residence time)” value [2, 6] was 29.4 min and 26.4 min. For the same compound, the “Vss (volume of distribution)” value [2, 6] was 0.51 L/kg, the “t1/2 (terminal)” value [2, 6] was 64.8 min and 57.6 min and the “CL (apparent systemic clearance)” value [2, 7] was 15.8 mL/min/kg. The “t1/2 (terminal)” value [2, 7] was 61.2 min, the AUCinf [2, 8] was 0.383 µM·h and 0.479 µM·h and the AUClast [2, 8] was 0.334 µM·h and 0.396 µM·h. The Cmax [2, 8] was 90.4 nM and 65 nM and 182 nM, the “F (oral bioavailability)” value [2, 8] was 1.9% and the Tmax [2, 8] was 0.25 hr (2×) and 2.00 hr. The AUC(0-inf) ([2]; SD, rat, plasma, po, 5 mg/kg, PO dose 5 mg/kg, individual rats) was 0.485 µM·h, the AUC(0-inf) [2, 9] was 0.449 µM·h and the Cmax [2, 9] was 113 nM. The AUC(0-inf) [2, 10] was 3.69 µM·h, the AUC(0-t) [2, 10] was 3.68 µM·h and the Cmax [2, 10] was 4940 nM. The clearance ([2]; Sprague-Dawley (SD), rat, plasma, iv, 1 mg/kg, 30-minute IV infusion 1 mg/kg, individual rats, read-out: CL (apparent systemic clearance) (converted)) was 14.5 mL/min/kg, the MRT ([2]; Sprague-Dawley (SD), rat, plasma, iv, 1 mg/kg, 30-minute IV infusion 1 mg/kg, individual rats, read-out: MRT (mean residence time)) was 28.2 min and the Vd ([2]; Sprague-Dawley (SD), rat, plasma, iv, 1 mg/kg, 30-minute IV infusion 1 mg/kg, individual rats, read-out: Vss (volume of distribution)) was 0.41 L/kg. For the same compound, the half-life ([2]; Sprague-Dawley (SD), rat, plasma, iv, 1 mg/kg, 30-minute IV infusion 1 mg/kg, individual rats, read-out: t1/2 (terminal) (converted)) was 60.6 min, the AUC(0-inf) [2, 11] was 3.42 µM·h and the AUC(0-t) [2, 11] was 3.4 µM·h. For the same compound, the Cmax [2, 11] was 5130 nM, the clearance ([2]; Sprague-Dawley (SD), rat, plasma, iv, 1 mg/kg, 30-minute IV infusion 1 mg/kg, mean n=3, read-out: CL (apparent systemic clearance) (converted)) was 15.8 mL/min/kg and the MRT ([2]; Sprague-Dawley (SD), rat, plasma, iv, 1 mg/kg, 30-minute IV infusion 1 mg/kg, mean n=3, read-out: MRT (mean residence time)) was 28.2 ± 1.2 min. For the same compound, the Vd ([2]; Sprague-Dawley (SD), rat, plasma, iv, 1 mg/kg, 30-minute IV infusion 1 mg/kg, mean n=3, read-out: Vss (volume of distribution)) was 0.44 ± 0.06 L/kg, the half-life ([2]; Sprague-Dawley (SD), rat, plasma, iv, 1 mg/kg, 30-minute IV infusion 1 mg/kg, mean n=3, read-out: t1/2 (terminal) (converted)) was 61.2 ± 3.6 min and the AUC(0-t) ([2]; Sprague-Dawley (SD), rat, plasma, po, 5 mg/kg, PO dose 5 mg/kg, individual rats) was 0.429 µM·h. The bioavailability ([2]; Sprague-Dawley (SD), rat, plasma, po, 5 mg/kg, PO dose 5 mg/kg, individual rats, read-out: F (oral bioavailability)) was 2.5%, the AUC(0-t) ([2]; Sprague-Dawley (SD), rat, plasma, po, 5 mg/kg, PO dose 5 mg/kg, mean n=3) was 0.386 µM·h and the bioavailability ([2]; Sprague-Dawley (SD), rat, plasma, po, 5 mg/kg, PO dose 5 mg/kg, mean n=3, read-out: F (oral bioavailability)) was 2.3%. The Tmax ([2]; Sprague-Dawley (SD), rat, plasma, po, 5 mg/kg, PO dose 5 mg/kg, mean n=3, read-out: Tmax) was 49.8 min.
